Reference: ChEMBL document CHEMBL6115023, “Design and biochemical evaluation of 2-cyclopropyl-thioureidobenzamide (CP-TBA) derivatives as potent HBV capsid assembly modulators targeting a novel binding site” (Eur J Med Chem, 2025)

Assays:
Hepatitis B virus = assay: Antiviral activity against HBV gene expressed in human HePAD38 cells assessed as inhibition of HBV DNA replication by quantitative PCR analysis; format: functional, organism-based
[1] = Cytotoxicity against human HepAD38 cells measured after 72 hrs by CCK-8 assay; format: toxicity, cell-based
[2] = Selectivity index, ratio of CC50 for human HepAD38 cells to IC50 for antiviral activity against HBV gene expressed in human HepAD38 cells assessed as inhibition of HBV DNA replication; format: toxicity, cell-based; settings: read-out: Selectivity Index
[3] = Stability in human plasma assessed as half life by LC-MS/MS analysis; format: ADME, cell-free
[4] = Stability in human plasma assessed as compound remaining measured after 60 mins by LC-MS/MS analysis; format: ADME, cell-free; settings: read-out: Stability
[5] = Stability in human plasma assessed as compound remaining measured after 10 mins by LC-MS/MS analysis; format: ADME, cell-free; settings: read-out: Stability
[6] = Stability in human plasma assessed as compound remaining measured after 30 mins by LC-MS/MS analysis; format: ADME, cell-free; settings: read-out: Stability
[7] = Metabolic stability in human liver microsomes assessed as intrinsic clearance measured per mg of microsomal protein upto 60 mins by LC-MS/MS analysis; format: ADME, Microsome; settings: read-out: CLH
[8] = Metabolic stability in human liver microsomes assessed as intrinsic clearance (liver) upto 60 mins by LC-MS/MS analysis; format: ADME, Microsome; settings: read-out: CLH

Row | Compound | EC50 (Hepatitis B virus) [µM] | CC50 at 72 h [1] [µM] | selectivity ratio [2] | also measured
1 | C=CCNC(=S)Nc1cc(C(=O)Nc2cc(F)c(F)c(F)c2)c(C2CC2)cc1F | 0.11 | 16.7 | 151 | 
2 | CC(C)NC(=S)Nc1cc(C(=O)Nc2cc(F)c(F)c(F)c2)c(C2CC2)cc1F | 0.033 | 16.8 | 510 | 
3 | CC(C)NC(=O)/C=C/c1c(S(=O)(=O)N2CCOCC2)ccc(F)c1C(=O)Nc1cc(F)c(F)c(F)c1 | > 4 | 24.2 | < 6.04 | 
4 | N#Cc1ccc(C(=O)Nc2cc(C(=O)Nc3cc(F)c(F)c(F)c3)c(C3CC3)cc2F)cc1 | 0.42 | 4.5 | 10.7 | 
5 | CC(C)[N+](C)(CCOC(=O)C1c2ccccc2Oc2ccccc21)C(C)C.[Br-] [PROPANTHELINE BROMIDE] |  |  |  | half-life [3]: 9.7 min; remaining at 1 h [4]: 1.5%; remaining at 10 min [5]: 70.1%; remaining at 0.5 h [6]: 18.9%
6 | O=C(Nc1cc(F)c(F)c(F)c1)c1cc(NC(=S)NC2CC2)c(F)cc1C1CC1 | 0.2 | > 100 | > 500 | 
7 | O=C(/C=C/c1c(S(=O)(=O)N2CCOCC2)ccc(F)c1C(=O)Nc1cc(F)c(F)c(F)c1)OCCO | > 4 | > 100 |  | 
8 | C[C@]12CC[C@H]3[C@@H](CCC4=CC(=O)CC[C@@]43C)[C@@H]1CC[C@@H]2O [TESTOSTERONE] |  |  |  | microsomal CLint [7]: 74.5 µL/min/mg; CLint scaled [8]: 67 mL/min/kg
9 | O=C(Nc1cc(F)c(F)c(F)c1)c1cc(S(=O)(=O)NC2CCC(O)CC2)c(F)cc1-c1ccsc1 (stereo not given) | > 4 | 82.4 | < 20.6 | 
10 | O=C(Nc1cc(F)c(F)c(F)c1)c1cc(NC(=O)C2CCCC2)c(F)cc1C1CC1 | 0.48 | > 100 | > 208 | 
11 | O=C(Nc1cc(F)c(F)c(F)c1)c1cc(S(=O)(=O)NC2CCC(O)CC2)c(F)cc1-c1ccccc1 (stereo not given) | > 4 | 49.7 | < 12.4 | 
12 | O=C(Nc1cc(F)c(F)c(F)c1)c1cc(NC(=S)NC2CCCC2)c(F)cc1C1CC1 | 0.026 | 4.66 | 179 | 
